Consider 31 compounds from ChEMBL document CHEMBL5608247, “Development of a First-in-Class DNMT1/HDAC Inhibitor with Improved Therapeutic Potential and Potentiated Antitumor Immunity” (J Med Chem, 2024).

Where only a bound is given, the exact number is not on record here.

One test concerns the target Histone deacetylase. Nature of the test: Inhibition of HDAC extracted from human HeLa cell nucleus using Boc-Lys(Ac)-AMC as substrate preincubated for 5 mins followed by substrate addition measured after 30 mins by fluorescence based assay. In kind it is subcellular.
For test [1], the target named is T1, DNA (cytosine-5)-methyltransferase 1 (Homo sapiens, UniProt P26358). Nature of the test: Inhibition of DNMT1 (unknown origin) at 100 uM relative to control.
Target sequence in this assay (P26358 whole entry): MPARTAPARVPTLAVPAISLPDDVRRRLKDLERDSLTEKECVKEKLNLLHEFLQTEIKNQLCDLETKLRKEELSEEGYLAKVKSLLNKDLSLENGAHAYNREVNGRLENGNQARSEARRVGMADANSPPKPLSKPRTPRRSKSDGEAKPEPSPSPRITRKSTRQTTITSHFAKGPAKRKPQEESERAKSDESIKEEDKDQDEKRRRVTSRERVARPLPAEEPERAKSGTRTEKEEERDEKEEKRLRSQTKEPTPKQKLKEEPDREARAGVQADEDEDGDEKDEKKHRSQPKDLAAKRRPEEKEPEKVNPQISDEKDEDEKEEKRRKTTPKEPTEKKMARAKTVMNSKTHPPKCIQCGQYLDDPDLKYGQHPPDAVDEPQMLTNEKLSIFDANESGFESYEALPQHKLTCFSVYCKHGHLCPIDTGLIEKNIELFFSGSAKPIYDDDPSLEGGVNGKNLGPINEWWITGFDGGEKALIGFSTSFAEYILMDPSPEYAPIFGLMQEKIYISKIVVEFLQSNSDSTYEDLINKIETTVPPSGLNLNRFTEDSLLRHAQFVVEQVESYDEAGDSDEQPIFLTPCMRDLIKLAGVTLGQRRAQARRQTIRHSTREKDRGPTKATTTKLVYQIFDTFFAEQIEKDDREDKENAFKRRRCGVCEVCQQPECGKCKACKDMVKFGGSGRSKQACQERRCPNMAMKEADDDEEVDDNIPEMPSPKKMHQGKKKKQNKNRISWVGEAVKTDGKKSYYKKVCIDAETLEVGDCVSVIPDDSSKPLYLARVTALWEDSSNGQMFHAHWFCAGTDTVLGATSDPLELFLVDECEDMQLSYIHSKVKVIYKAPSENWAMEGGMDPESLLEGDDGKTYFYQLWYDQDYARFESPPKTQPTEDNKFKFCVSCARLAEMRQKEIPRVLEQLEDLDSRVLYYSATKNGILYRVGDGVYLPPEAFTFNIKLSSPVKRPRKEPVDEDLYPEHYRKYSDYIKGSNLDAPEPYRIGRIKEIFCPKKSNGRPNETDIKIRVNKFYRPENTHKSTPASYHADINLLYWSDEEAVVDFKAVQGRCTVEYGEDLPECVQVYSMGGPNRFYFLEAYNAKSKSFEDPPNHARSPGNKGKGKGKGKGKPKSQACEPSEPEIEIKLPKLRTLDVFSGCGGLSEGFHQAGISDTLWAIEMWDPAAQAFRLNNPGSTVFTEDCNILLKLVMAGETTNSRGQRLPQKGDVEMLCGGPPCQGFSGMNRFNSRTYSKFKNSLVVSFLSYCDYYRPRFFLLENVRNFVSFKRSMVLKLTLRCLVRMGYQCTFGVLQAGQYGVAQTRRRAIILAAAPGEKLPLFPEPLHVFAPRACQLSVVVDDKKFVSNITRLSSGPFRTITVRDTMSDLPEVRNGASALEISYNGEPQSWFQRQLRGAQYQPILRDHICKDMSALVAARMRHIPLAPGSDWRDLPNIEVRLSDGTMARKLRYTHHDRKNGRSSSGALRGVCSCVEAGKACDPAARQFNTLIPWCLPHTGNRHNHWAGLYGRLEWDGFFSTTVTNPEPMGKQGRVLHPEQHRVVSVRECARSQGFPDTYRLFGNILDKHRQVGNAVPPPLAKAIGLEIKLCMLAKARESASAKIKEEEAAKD
The target in test [2] is DNA (cytosine-5)-methyltransferase 3A (Homo sapiens) (UniProt Q9Y6K1). Nature of the test: Inhibition of DNMT3A (unknown origin) at 100 uM relative to control.
DNA (cytosine-5)-methyltransferase 3A (Homo sapiens), sequence (Q9Y6K1 whole entry, looked up): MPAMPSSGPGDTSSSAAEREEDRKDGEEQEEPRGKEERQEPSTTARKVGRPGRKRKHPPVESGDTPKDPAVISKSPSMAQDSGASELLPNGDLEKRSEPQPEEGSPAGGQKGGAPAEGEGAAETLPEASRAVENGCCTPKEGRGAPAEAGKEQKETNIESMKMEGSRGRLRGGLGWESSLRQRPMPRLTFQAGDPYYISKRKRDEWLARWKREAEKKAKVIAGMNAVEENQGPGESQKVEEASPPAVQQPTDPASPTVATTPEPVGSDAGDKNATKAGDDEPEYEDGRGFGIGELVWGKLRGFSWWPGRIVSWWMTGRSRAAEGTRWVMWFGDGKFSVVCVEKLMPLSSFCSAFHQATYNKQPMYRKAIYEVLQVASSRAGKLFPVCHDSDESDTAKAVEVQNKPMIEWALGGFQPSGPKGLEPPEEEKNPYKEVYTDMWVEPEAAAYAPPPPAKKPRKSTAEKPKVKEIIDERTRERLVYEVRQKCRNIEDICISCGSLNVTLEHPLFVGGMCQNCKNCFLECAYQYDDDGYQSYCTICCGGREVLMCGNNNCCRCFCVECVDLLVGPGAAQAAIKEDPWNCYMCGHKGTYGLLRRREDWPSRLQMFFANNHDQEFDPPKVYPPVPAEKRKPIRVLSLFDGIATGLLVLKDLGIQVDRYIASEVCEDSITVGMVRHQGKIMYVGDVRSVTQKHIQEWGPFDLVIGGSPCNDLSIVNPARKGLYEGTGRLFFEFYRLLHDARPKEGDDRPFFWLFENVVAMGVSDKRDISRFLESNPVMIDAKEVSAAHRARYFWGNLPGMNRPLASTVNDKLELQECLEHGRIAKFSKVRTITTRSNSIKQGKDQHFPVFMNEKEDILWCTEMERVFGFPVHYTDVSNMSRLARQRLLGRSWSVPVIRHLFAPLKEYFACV
In test [3] the target is T2, DNA (cytosine-5)-methyltransferase 3B (Homo sapiens, UniProt Q9UBC3). Nature of the test: Inhibition of DNMT3B (unknown origin) at 100 uM relative to control.
In another test the target is Histone deacetylase 1 (Homo sapiens, UniProt Q13547). The test is described as follows: Inhibition of HDAC1 (unknown origin).
Histone deacetylase 1, sequence (Q13547 whole entry): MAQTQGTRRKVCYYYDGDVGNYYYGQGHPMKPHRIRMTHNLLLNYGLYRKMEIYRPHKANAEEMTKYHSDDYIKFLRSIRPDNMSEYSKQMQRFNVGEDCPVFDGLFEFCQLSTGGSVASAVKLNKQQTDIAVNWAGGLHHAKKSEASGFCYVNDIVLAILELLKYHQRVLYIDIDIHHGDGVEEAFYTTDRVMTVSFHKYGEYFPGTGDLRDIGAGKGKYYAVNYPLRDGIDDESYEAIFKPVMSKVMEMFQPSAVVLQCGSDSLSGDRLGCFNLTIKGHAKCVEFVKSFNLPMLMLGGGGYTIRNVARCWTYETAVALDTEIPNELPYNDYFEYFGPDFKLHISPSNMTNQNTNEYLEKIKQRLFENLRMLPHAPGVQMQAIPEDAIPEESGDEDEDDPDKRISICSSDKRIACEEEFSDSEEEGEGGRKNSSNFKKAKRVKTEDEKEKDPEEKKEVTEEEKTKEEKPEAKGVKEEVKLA
In test [4] the target is T3, Protein deacetylase HDAC6 (Homo sapiens, UniProt Q9UBN7).
T3 sequence (Q9UBN7 whole entry): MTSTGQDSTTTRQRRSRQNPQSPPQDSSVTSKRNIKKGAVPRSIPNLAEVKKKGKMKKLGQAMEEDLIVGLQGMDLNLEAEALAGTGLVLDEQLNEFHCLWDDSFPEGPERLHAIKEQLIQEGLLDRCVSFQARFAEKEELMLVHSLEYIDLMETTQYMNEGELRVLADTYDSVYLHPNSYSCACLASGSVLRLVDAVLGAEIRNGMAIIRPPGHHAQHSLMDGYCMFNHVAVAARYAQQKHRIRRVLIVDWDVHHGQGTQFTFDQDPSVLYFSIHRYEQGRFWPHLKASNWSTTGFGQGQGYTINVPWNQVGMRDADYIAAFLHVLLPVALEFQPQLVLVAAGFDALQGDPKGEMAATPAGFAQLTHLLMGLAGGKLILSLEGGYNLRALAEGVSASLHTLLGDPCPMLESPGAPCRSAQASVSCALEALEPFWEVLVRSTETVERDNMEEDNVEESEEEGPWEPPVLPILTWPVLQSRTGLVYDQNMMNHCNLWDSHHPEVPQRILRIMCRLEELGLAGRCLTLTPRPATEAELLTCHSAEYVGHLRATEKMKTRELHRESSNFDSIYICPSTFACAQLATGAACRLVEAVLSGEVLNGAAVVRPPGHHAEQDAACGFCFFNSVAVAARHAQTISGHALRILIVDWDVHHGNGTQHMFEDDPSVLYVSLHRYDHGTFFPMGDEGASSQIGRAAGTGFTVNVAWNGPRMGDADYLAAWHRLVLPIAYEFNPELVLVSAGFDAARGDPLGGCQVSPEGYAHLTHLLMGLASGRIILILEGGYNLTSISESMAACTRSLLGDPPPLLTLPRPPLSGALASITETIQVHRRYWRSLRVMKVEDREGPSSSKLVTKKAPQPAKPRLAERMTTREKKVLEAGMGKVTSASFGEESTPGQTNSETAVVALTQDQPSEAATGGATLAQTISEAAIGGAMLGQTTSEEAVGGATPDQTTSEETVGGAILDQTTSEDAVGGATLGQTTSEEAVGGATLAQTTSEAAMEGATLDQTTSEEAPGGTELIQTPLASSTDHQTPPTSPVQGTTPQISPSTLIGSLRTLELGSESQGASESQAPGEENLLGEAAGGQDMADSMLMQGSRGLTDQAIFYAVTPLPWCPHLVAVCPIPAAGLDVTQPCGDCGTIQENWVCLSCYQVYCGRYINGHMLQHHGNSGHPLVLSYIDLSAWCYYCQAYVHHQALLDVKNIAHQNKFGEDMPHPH
The test is described as follows: Inhibition of HDAC6 (unknown origin).

In test [5] the test system is MV4-11. Nature of the test: Antiproliferative activity against human MV4-11 cells incubated for 96 hrs by CCK8 assay. It is filed as functional, cell-based. As to conditions: MV4-11, 96 h.
Test [6] concerns MV4-11. Nature of the test: Antitumor activity against human MV4-11 cells xenografted in BALB/c nude mouse at 45 mg/kg, ip qd treated for 19 days relative to control. It is filed as functional. Conditions: MV4-11, 456 h, time 19 day, read-out: TGI.
The target in test [7] is T1, DNA (cytosine-5)-methyltransferase 1. The test is described as follows: Inhibition of NLuc-fused DNMT1 expressed hypomorphic in human HCT-116 cells assessed as TSG repoter activation at 3 uM incubated for 72 hrs by Nano-Glo Luciferase assay. In kind it is cell-based.
Target sequence in this assay (P26358 whole entry, looked up): as the sequence (P26358 whole entry) above
Test [8] has the same target. The test is described as follows: Induction of thermal stabilization of N-terminal 6xHis-FLAG-tagged […] human DNMT1 (698 to 1616 residues) extracted from Sf9 cells assessed as change in melting temperature at 10 uM by SYPRO Orange dye based PTS assay (reference value: 0.0 degreeC). In kind it is cell-based.
Target sequence in this assay (P26358 whole entry): as above
For test [9], the target named is T2, DNA (cytosine-5)-methyltransferase 3B. The test is described as follows: Inhibition of DNMT3B (unknown origin).

As for `CCc1c(C#N)c(SC(C(N)=O)c2ccccc2)nc(N2CCN(c3ncc(C(=O)NO)cn3)CC2)c1C#N` (stereo unspecified), the IC50 on Histone deacetylase was 60 nM. `CCc1c(C#N)c(SC(C(N)=O)c2ccccc2)nc(N2CCC(NC(=O)CCCCCCC(=O)NO)CC2)c1C#N` (stereo unspecified) came in with an IC50 against Histone deacetylase of 300 nM. This IC50 lies about 5-fold higher than the previous one. As to `CCc1c(C#N)c(SC(C(N)=O)c2ccccc2)nc(N(C)CCNCc2ccc(/C=C/C(=O)NO)cc2)c1C#N` (stereo unspecified), the IC50 on Histone deacetylase came out at 160 nM. This IC50 is about 1.9-fold lower than that of the compound before.

Regarding `CCc1c(C#N)c(SC(C(N)=O)c2ccccc2)nc(N2CCC(NC(=O)CCCCC(=O)Nc3ccc(C(=O)NO)cc3)CC2)c1C#N` (stereo unspecified), the IC50 against Histone deacetylase is 280 nM. Take `CCc1c(C#N)c(SC(C(N)=O)c2ccccc2)nc(N(C)C2CCN(c3ncc(C(=O)NO)cn3)CC2)c1C#N` (stereo unspecified): the inhibition in test [1] was determined as 69.9%; in test [2], 23.4%; in test [3], 48.5%. In addition, the figures for the IC50 (against Histone deacetylase 1; in test [4]; on Histone deacetylase) were 56.8 nM, 17.4 nM and 230 nM, respectively. As to `CCc1c(C#N)c(SC(C(N)=O)c2ccccc2)nc(N2CCC(NC(=O)c3ccc(C(=O)NO)cc3)CC2)c1C#N` (stereo unspecified), the concentration for half-maximal inhibition (IC50) against Histone deacetylase worked out at 870 nM. For the compound `CCc1c(C#N)c(SC(C(N)=O)c2ccccc2)nc(N2CCC(NC(=O)CCC(=O)Nc3ccc(/C=C/C(=O)NO)cc3)CC2)c1C#N` (stereo unspecified), the IC50 at Histone deacetylase was 230 nM.

Take `CCc1c(C#N)c(SC(C(N)=O)c2ccccc2)nc(N2CCC(NC(=O)c3ccc(C(=O)Nc4ccccc4N)cc3)CC2)c1C#N` (stereo unspecified): the IC50 against Histone deacetylase is > 20000 nM. As to `CCc1c(C#N)c(SC(C(N)=O)c2ccccc2)nc(N2CCC(NCc3ccc(C(=O)NO)cc3)CC2)c1C#N` (stereo unspecified), the IC50 on Histone deacetylase was > 5000 nM. `CCc1c(C#N)c(SC(C(N)=O)c2ccccc2)nc(N2CCC(NCc3ccc(C(=O)NCc4ccc(C(=O)NO)cc4)cc3)CC2)c1C#N` (stereo unspecified) came in with an IC50 at Histone deacetylase of 250 nM. Compound `CCc1c(C#N)c(SC(C(N)=O)c2ccccc2)nc(N2CCN(Cc3ccc(/C=C/C(=O)NO)cc3)CC2)c1C#N` (stereo unspecified) showed an IC50 on Histone deacetylase of 140 nM. Against the preceding compound, the IC50 is about 1.8-fold lower. Turning to `CCc1c(C#N)c(SC(C(N)=O)c2ccccc2)nc(N2CCC(NC(=O)Cc3ccc(C(=O)Nc4ccccc4N)cc3)CC2)c1C#N` (stereo unspecified), the IC50 at Histone deacetylase is > 20000 nM. For the compound `CCc1c(C#N)c(SC(C(N)=O)c2ccccc2)nc(N2CCC(NC(=O)CCCCCC(=O)NO)CC2)c1C#N` (stereo unspecified), at Histone deacetylase, the IC50 was 210 nM. The same measure, in the same setting: as for `CCc1c(C#N)c(SC(C(N)=O)c2ccccc2)nc(N2CCC(NCc3ccc(C(=O)Nc4ccccc4N)cc3)CC2)c1C#N` (stereo unspecified), the figure is > 20000 nM; as for `CCc1c(C#N)c(SC(C(N)=O)c2ccccc2)nc(N2CCC(NC(=O)CCCC(=O)Nc3ccccc3N)CC2)c1C#N` (stereo unspecified), > 20000 nM; as for `CCc1c(C#N)c(SC(C(N)=O)c2ccccc2)nc(N2CCC(NC(=O)CCCC(=O)NCc3ccc(C(=O)NO)cc3)CC2)c1C#N` (stereo unspecified), 330 nM. Consider `CCc1c(C#N)c(SC(C(N)=O)c2ccccc2)nc(N2CCC(NC(=O)CCCC(=O)Nc3ccc(C(=O)NO)cc3)CC2)c1C#N` (stereo unspecified), for which, at Histone deacetylase, the IC50 turned out to be 570 nM.

`CCc1c(C#N)c(SC(C(N)=O)c2ccccc2)nc(N2CCC(CNc3ncc(C(=O)NO)cn3)CC2)c1C#N` (stereo unspecified) gave an IC50 against Histone deacetylase of 140 nM. The compound `CCc1c(C#N)c(SC(C(N)=O)c2ccccc2)nc(N2CCC(NC(=O)CCCC(=O)NO)CC2)c1C#N` (stereo unspecified) came in with an IC50 on Histone deacetylase of 1070 nM. On to `CCc1c(C#N)c(SC(C(N)=O)c2ccccc2)nc(N2CCC(NCc3ccc(/C=C/C(=O)NO)cc3)CC2)c1C#N` (stereo unspecified), for which the IC50 at Histone deacetylase amounted to 130 nM; in the test on MV4-11 [5], 660 nM. Also, the inhibition in vivo at 45 mg/kg in the test with MV4-11 [6] is 80%. For the compound `CCc1c(C#N)c(CN(C)C2CCN(c3ncc(C(=O)NO)cn3)CC2)nc(SC(C(N)=O)c2ccccc2)c1C#N` (stereo unspecified), on Histone deacetylase, the IC50 turned out to be 100 nM. Take `CCc1c(C#N)c(SC(C(N)=O)c2ccccc2)nc(N2CCC(CNCc3ccc(/C=C/C(=O)NO)cc3)CC2)c1C#N` (stereo unspecified): the inhibition in vivo at 45 mg/kg with MV4-11 [6] was 95%. Further, the EC50 in test [7] amounted to 1090 nM. Moreover, in [8], the ΔTm is 11 °C. As for `CCc1c(C#N)c(SC(C(N)=O)c2ccccc2)nc(N2CCC(NC(=O)CCCCC(=O)NO)CC2)c1C#N` (stereo unspecified), the IC50 against Histone deacetylase is > 5000 nM. `O=C(NO)C1CCN(CC(O)COC(Cn2c3ccccc3c3ccccc32)Cn2c3ccccc3c3ccccc32)CC1` (stereo unspecified) registered an IC50 in [9] of 1320 nM.

Take `CCc1c(C#N)c(SC(C(N)=O)c2ccccc2)nc(N2CCC(NC(=O)CCC(=O)NCc3ccc(C(=O)NO)cc3)CC2)c1C#N` (stereo unspecified): the IC50 at Histone deacetylase was determined as 230 nM. This counts as sub-micromolar. On to `CCc1c(C#N)c(SC(C(N)=O)c2ccccc2)nc(N2CCC(NCc3ccc(C(=O)NCc4ccc(/C=C/C(=O)NO)cc4)cc3)CC2)c1C#N` (stereo unspecified), for which, at Histone deacetylase, the IC50 worked out at 80 nM. At Histone deacetylase, `CCc1c(C#N)c(SC(C(N)=O)c2ccccc2)nc(N2CCC(NC(=O)CCCCCCCC(=O)NO)CC2)c1C#N` (stereo unspecified) displayed an IC50 of 1160 nM. As for `CCc1c(C#N)c(SC(C(N)=O)c2ccccc2)nc(N2CCC(NC(=O)CCC(=O)NO)CC2)c1C#N` (stereo unspecified), the IC50 against Histone deacetylase is > 5000 nM. Take `CCc1c(C#N)c(SC(C(N)=O)c2ccccc2)nc(N2CCC(NC(=O)CCC(=O)Nc3ccc(C(=O)NO)cc3)CC2)c1C#N` (stereo unspecified): the 50% inhibitory concentration (IC50) on Histone deacetylase was found to be 1300 nM. This counts as single-digit micromolar. Same read-out and setting: for `CCc1c(C#N)c(SC(C(N)=O)c2ccccc2)nc(N2CCC(Nc3ncc(C(=O)NO)cn3)CC2)c1C#N` (stereo unspecified) the value was 190 nM. Consider `CCc1c(C#N)c(S[C@H](C(N)=O)c2ccccc2)nc(N2CCC(CNCc3ccc(/C=C/C(=O)NO)cc3)CC2)c1C#N`, for which the EC50 in [7] stood at 1180 nM. For the same compound, the ΔTm in test [8] came out at 9 °C.
